One test deals with GmolGOBP1 (Grapholita molesta, UniProt H9XTU5). The experiment in a line: Fluorescence competitive binding assay with probe 1-NPN, rGmolGOBP1. The settings on record: for binding to rGmolGOBP1 (in words): competitive binding with 1-NPN. As for the experimental part:
(§1) Fluorescence binding assays were performed on a Hitachi (Tokyo, Japan) F-4500 fluorescence spectrophotometer with a 1 cm light path fluorimeter quartz cuvette. Both of the slit widths for excitation and emission were 10 nm. 1-N-phenyl-naphthylamine (1-NPN) was dissolved in HPLC purity grade methanol to yield a 1 mM stock solution. […] The probes were excited at 337 nm and emission spectra were recorded between 370 and 550 nm. […] Binding data were collected in three independent measurements.
(§2) Dissociation constants of the complex GmolGOBPs/1-NPN (K1-NPN) were calculated by a nonlinear regression binding curve, using Prism 5.0 (GraphPad Software Inc.).

A further test has as its target GmolGOBP2 (Grapholita molesta, UniProt H9XTU6). The experiment in a line: Fluorescence competitive binding assay with probe 1-NPN, rGmolGOBP2 wild-type. As for the experimental part: as §1, §2
A further test deals with rGmolOBP11. Details: method as in PMID 26609640. The note with it: cited from earlier work.
Another test addresses rGmolOBP8. Details: method as in PMID 26609640. The settings on record: cited from earlier work.
The target of a further test is GmolGOBP2 V111A (Grapholita molesta, UniProt H9XTU6, V131A). The experiment in a line: Fluorescence competitive binding assay, GmolGOBP2 mutant V111A. The note with it: for affinity of V111A mutant versus wild-type (in words): V111A versus wild-type rGmolGOBP2. As for the experimental part:
(§3) Fluorescence binding assays were performed on a Hitachi (Tokyo, Japan) F-4500 fluorescence spectrophotometer with a 1 cm light path fluorimeter quartz cuvette. Both of the slit widths for excitation and emission were 10 nm. 1-N-phenyl-naphthylamine (1-NPN) was dissolved in HPLC purity grade methanol to yield a 1 mM stock solution. A 2 μM solution of the protein in 20 mM Tris-HCl, pH 7.4, was titrated with aliquots of 1 mM 1-NPN to final concentrations of 1, 2, 4, 6, 8, 10, 12, 14, 16, 18, and 22 μM. The probes were excited at 337 nm and emission spectra were recorded between 370 and 550 nm. All ligands (S1 File) used in competitive binding assays were also dissolved in HPLC purity grade methanol. The final concentrations of sex pheromones were between 1 and 22 μM for each rGmolGOBP protein, whereas the concentrations of 30 synthetic plant volatiles to rGmolGOBP1 and 2 were up to 64 and 100 μM, respectively. Binding data were collected in three independent measurements.
(§4) Dissociation constants of the complex GmolGOBPs/1-NPN (K1-NPN) were calculated by a nonlinear regression binding curve, using Prism 5.0 (GraphPad Software Inc.). The inhibition constants (Ki) of the competitors were computed from the corresponding IC50 values using the equation: Ki = [IC50]/(1+[1−NPN]/K1−NPN), where [1−NPN] is the free concentration of 1−NPN and K1-NPN is the dissociation constant of the complex protein/1-NPN.
(§5) Gene-specific primers were designed in accordance with the recommended protocols of the TaKaRa MutanBEST Kit (TaKaRa, Shiga, Japan). The GmolGOBP2 coding sequence was mutated to create the three mutants GmolGOBP2 T9A (threonine to alanine at position 9), GmolGOBP2 V111A (valine to alanine at position 111), and GmolGOBP2 V114A (valine to alanine at position 114). Mutations were obtained using the TaKaRa MutanBEST Kit with Pyrobest DNA polymerase with the pMD19-T/GmolGOBP2 plasmid DNA as template. All plasmids containing mutations were verified by DNA sequencing. Mutated protein expression and enrichment were performed as described above for rGmolGOBP1 and 2. After determining concentrations, purified mutants were applied to verify the binding affinities with dodecanol and its analogs in fluorescence ligand-binding assays.

The next test addresses GmolGOBP2 V114A (Grapholita molesta, UniProt H9XTU6, V134A). The experiment in a line: Fluorescence competitive binding assay, GmolGOBP2 mutant V114A. The note with it: for affinity of V114A mutant versus wild-type (in words): V114A versus wild-type rGmolGOBP2. As for the experimental part: as §3, §4, §5
A further test has as its target GmolGOBP2 T9A (Grapholita molesta, UniProt H9XTU6, T29A). Kind of test: Fluorescence competitive binding assay, GmolGOBP2 mutant T9A. The settings on record: for affinity of T9A mutant versus wild-type (in words): T9A versus wild-type rGmolGOBP2. The protocol: as §3, §4, §5
Setting [1] is: protein and 1-NPN 2 μM, pH 7.4, calculated from IC50, read-out: GmolGOBP1 Ki.
Setting [2] is: protein and 1-NPN 2 μM, pH 7.4, displacing half of initial fluorescence, read-out: GmolGOBP1 IC50.
[3] abbreviates: protein and 1-NPN 2 μM, pH 7.4, calculated from IC50, read-out: GmolGOBP2 Ki.
Where [4] appears, read: protein and 1-NPN 2 μM, pH 7.4, displacing half of initial fluorescence, read-out: GmolGOBP2 IC50.

Each structure is given as a SMILES string. Read-outs that look alike come from different tables or passages of the source.

Data on 18 compounds can be found in PMC4859520, “Binding Properties of General Odorant Binding Proteins from the Oriental Fruit Moth, Grapholita molesta (Busck) (Lepidoptera: Tortricidae)” (PLoS ONE, 2016).

Sequence of GmolGOBP2 V111A (H9XTU6 entry or part of it V131A): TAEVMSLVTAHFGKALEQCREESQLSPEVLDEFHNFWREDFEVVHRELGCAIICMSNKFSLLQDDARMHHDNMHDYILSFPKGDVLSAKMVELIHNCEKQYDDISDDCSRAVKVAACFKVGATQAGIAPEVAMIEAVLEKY
Sequence of GmolGOBP2 T9A (H9XTU6 entry or part of it T29A): as the sequence (H9XTU6 entry or part of it V131A) above, with T9A, A111V counted along it
Sequence of GmolGOBP1 (H9XTU5 entry or part of it): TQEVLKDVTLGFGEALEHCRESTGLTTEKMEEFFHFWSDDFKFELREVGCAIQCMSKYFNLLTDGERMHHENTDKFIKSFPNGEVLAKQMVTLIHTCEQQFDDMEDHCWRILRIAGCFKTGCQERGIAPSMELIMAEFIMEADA
Sequence of GmolGOBP2 V114A (H9XTU6 entry or part of it V134A): as the sequence (H9XTU6 entry or part of it V131A) above, with A111V, V114A counted along it
Sequence of GmolGOBP2 (H9XTU6 entry or part of it): as the sequence (H9XTU6 entry or part of it V131A) above, with A111V counted along it

Consider `CC(=O)OCCC(C)C` [Isoamyl acetate], for which, at GmolGOBP1 (setting [1]), the Ki was 26.6 µM. The IC50 on GmolGOBP1 (setting [2]) stood at 29 ± 2.18 µM.
At GmolGOBP2, `O=Cc1ccccc1` [Benzaldehyde] registered a half-maximal inhibitory concentration (IC50) of 91.3 ± 2.87 µM and a Ki of 75.4 µM. At GmolGOBP1, the IC50 was determined as 35 ± 3.28 µM and the inhibitory constant (Ki) amounted to 32.2 µM.
As to `CCCCCCO` [1-Hexanol], the inhibition constant Ki at GmolGOBP1 (setting [1]) was 19.7 µM. The half-maximal inhibitory concentration (IC50) at GmolGOBP1 (setting [2]) is 21.4 ± 1.8 µM.
`CCC/C=C\CCCCCCCO` [Z8-12:OH, (Z)-8-dodecenyl alcohol]: the inhibition constant Ki on GmolGOBP2 (setting [3]) is 12.8 µM; at rGmolOBP11 it was 3.05 µM; on rGmolOBP8, 5.59 µM; at GmolGOBP1 (setting [1]), 3.14 µM. Also, the figures for the IC50 on GmolGOBP2 (setting [4]) and on GmolGOBP1 (setting [2]) were 15.5 ± 0.52 µM and 3.85 ± 0.41 µM, respectively.
As for `N#Cc1ccccc1` [Benzonitrile], on GmolGOBP1, the concentration for half-maximal inhibition (IC50) turned out to be 40.4 ± 1.95 µM and the inhibitory constant (Ki) came out at 37.1 µM.
As for `CC/C=C\CCOC(C)=O` [Cis-3-Hexenyl acetate], the inhibition constant (Ki) at GmolGOBP1 (setting [1]) was 22.4 µM. Moreover, the 50% inhibitory concentration (IC50) on GmolGOBP1 (setting [2]) was found to be 24.3 ± 1.71 µM.
In the case of `CCCCCCC=O` [Heptanal], at GmolGOBP1 (setting [1]), the Ki was 34.2 µM. The half-inhibitory concentration (IC50) on GmolGOBP1 (setting [2]) was found to be 37.1 ± 4.5 µM.
On to `CCCCCC(=O)OCCCC` [Butyl hexanoate], for which the Ki at GmolGOBP2 (setting [3]) is 43.1 µM; on GmolGOBP1 (setting [1]) it was 17.7 µM. For the same compound, the figures for the IC50 on GmolGOBP2 (setting [4]) and on GmolGOBP1 (setting [2]) were 52.2 ± 2.49 µM and 19.2 ± 1.27 µM, respectively.
For `CCC/C=C/C=O` [(E)-2-Hexenal], at GmolGOBP1, the IC50 was determined as 23 ± 1.85 µM and the Ki was 21.2 µM.
Take `CCCCCCCCC=O` [Nonanal]: the Ki at GmolGOBP2 (setting [3]) was 75.3 µM; at GmolGOBP1 (setting [1]) it was 54.4 µM. For the same compound, the IC50 at GmolGOBP2 (setting [4]) was found to be 91.2 ± 5.49 µM; on GmolGOBP1 (setting [2]), 59.2 ± 8.7 µM.
In the case of `CCCCOC(C)=O` [Butyl acetate], at GmolGOBP1, the IC50 amounted to 39.9 ± 2.66 µM and the inhibitory constant (Ki) stood at 36.7 µM.
Consider `CCCCCCCCCCCCCCC` [Pentadecane], for which the inhibition constant (Ki) at GmolGOBP1 (setting [1]) is 11.4 µM. Besides, the concentration for half-maximal inhibition (IC50) at GmolGOBP1 (setting [2]) was found to be 12.4 ± 1.87 µM.
For `CCCCCCCCCCCCCCCCCC` [Octadecane], on GmolGOBP1, the “binding to rGmolGOBP1 (in words)” value is “very weak binding affinities”.
For `CCCCCCCCCCCCCC` [Tetradecane], the Ki on GmolGOBP1 (setting [1]) is 8.47 µM. For the same compound, the IC50 at GmolGOBP1 (setting [2]) was 9.21 ± 1.31 µM.
As to `CCCCCCCCCCCCCCCCO` [hexadecanol], at GmolGOBP2 V111A, the inhibitory constant (Ki) came out at 1.36 ± 0.13 µM and the “affinity of V111A mutant versus wild-type (in words)” value is given as “no differences”. For the same compound, at GmolGOBP2 (rGmolGOBP2 wild-type, protein and 1-NPN 2 μM, ligand 0 to 14 μM, read-out: Ki Wild-Type), the Ki stood at 1.35 ± 0.45 µM. Also, at GmolGOBP2 V114A, the Ki came out at 1.99 ± 0.74 µM and the “affinity of V114A mutant versus wild-type (in words)” value is given as “no differences”. For the same compound, at GmolGOBP2 T9A, the affinity, expressed as Ki, was 22.4 ± 3.03 µM and the “affinity of T9A mutant versus wild-type (in words)” value is given as “drastical decline in affinity”.
With `CCCCCCCCCCCCCCCC` [Hexadecane], the “binding to rGmolGOBP1 (in words)” value on GmolGOBP1 was “very weak binding affinities”.
Consider `CCCCCCCCCCCCCCO` [tetradecanol], for which the “affinity of V111A mutant versus wild-type (in words)” value at GmolGOBP2 V111A was “no differences”. The Ki amounted to 0.3 ± 0.16 µM on GmolGOBP2 V111A (mutant V111A, protein and 1-NPN 2 μM, ligand 0 to 14 μM, read-out: Ki V111A); 0.36 ± 0.05 µM on GmolGOBP2; 0.37 ± 0.14 µM on GmolGOBP2 V114A (mutant V114A, protein and 1-NPN 2 μM, ligand 0 to 14 μM, read-out: Ki V114A); 5.75 ± 0.86 µM at GmolGOBP2 T9A (mutant T9A, protein and 1-NPN 2 μM, ligand 0 to 14 μM, read-out: Ki T9A). The “affinity of V114A mutant versus wild-type (in words)” value at GmolGOBP2 V114A is given as “no differences”. Also, the “affinity of T9A mutant versus wild-type (in words)” value at GmolGOBP2 T9A is listed as “drastical decline in affinity”.
Take `CC(C)CCO` [3-Methyl-1-butanol]: the Ki on GmolGOBP1 (setting [1]) is 10.7 µM. On GmolGOBP1 (setting [2]), the half-inhibitory concentration (IC50) came to 11.6 ± 0.81 µM.
